# What was measured:
# [1] = tested on: melanoma, glioblastoma, TNBC, ovarian cancer, and lung cancer; experiment: syngeneic and human xenograft mouse tumor models, primary tumor growth; assay type: in vivo
# ApoE [2] = experiment: ApoE gene expression induction in cancer cells; assay type: cell-based; conditions: compared to control cells
# ApoE [3] = experiment: ApoE gene expression induction in hPBMCs; assay type: cell-based, human; conditions: compared to control cells
# tumor growth = tumor growth studies, minimum efficacious dose and exposure; assay type: in vivo
# [4] = oral PK study in male Beagle dogs; assay type: in vivo; conditions: dog, plasma
# CYP2J2 = CYP2J2 (Homo sapiens, UniProt P51589); experiment: in vitro CYP metabolism; assay type: in vitro ADME
# CYP2C8 = CYP2C8 (Homo sapiens, UniProt P10632); experiment: in vitro CYP450 inhibition; assay type: in vitro ADME; conditions: read-out: 50% inhibitory concentration [IC50] CYP2C8
# 2A6 = 2A6 (Homo sapiens, UniProt P11509); experiment: in vitro CYP450 inhibition; assay type: in vitro ADME
# 2C9 = 2C9 (Homo sapiens, UniProt P11712); experiment: in vitro CYP450 inhibition; assay type: in vitro ADME
# 2D6 = 2D6 (Homo sapiens, UniProt P10635); experiment: in vitro CYP450 inhibition; assay type: in vitro ADME
# 2E1 = 2E1 (Homo sapiens, UniProt P05181); experiment: in vitro CYP450 inhibition; assay type: in vitro ADME
# 3A4 = 3A4 (Homo sapiens, UniProt P08684); experiment: in vitro CYP450 inhibition; assay type: in vitro ADME
# P-glucoprotein (P-gp) = P-glucoprotein (P-gp) (Homo sapiens, UniProt P08183); experiment: efflux transporter inhibition in vitro; assay type: in vitro ADME
# [5] = target: organic anion transporting polypeptide (OATP) 1B1 (Homo sapiens, UniProt Q9Y6L6); experiment: uptake transporter inhibition in vitro; assay type: in vitro ADME; conditions: read-out: IC50 OATP1B1
# OATP1B3 = OATP1B3 (Homo sapiens, UniProt Q9NPD5); experiment: uptake transporter inhibition in vitro; assay type: in vitro ADME
# [6] = Example 1: adverse event profile of full and reduced regimens with docetaxel; assay type: in vivo
# Experimental: Protocol: Three subjects was administered Regimen 1 (Full): 35 mg/m^2 of docetaxel on days 1, 8, and 15 of every 28-day cycle and 80 mg of 2-[3-[(3R)-3-[[2-chloro-3-(trifluoromethyl)phenyl]methyl-(2,2-diphenylethyl)amino]butoxy]phenyl]acetic acid twice per day daily throughout treatment. Seven subjects was administered Regimen 2 (Reduced): 28 mg/m^2 of docetaxel on days 1, 8, and 15 of every 28-day cycle and 80 mg of 2-[3-[(3R)-3-[[2-chloro-3-(trifluoromethyl)phenyl]methyl-(2,2-diphenylethyl)amino]butoxy]phenyl]acetic acid twice per day for five continuous days followed by a 2 day rest period throughout treatment. One subject that was administered Regimen 2 received 35 mg/m^2 of docetaxel on days 1 and 80 mg of 2-[3-[(3R)-3-[[2-chloro-3-(trifluoromethyl)phenyl]methyl-(2,2-diphenylethyl)amino]butoxy]phenyl]acetic acid twice per day for the first seven days of treatment prior to switching to the reduced treatment schedule for the remainder of the 28-day cycle.
# Xenograft A549 = experiment: Example 2: Xenograft A549 mice, tumor volume; assay type: in vivo
# Experimental: Protocol: Five groups of Xenograft A549 mice were treated and tumor volume tracked for twenty-two days. Group 01 was administered 0.9% Saline, 0 mg/kg cisplatin, Corn Oil, and 0 mg/kg 2-[3-[(3R)-3-[[2-chloro-3-(trifluoromethyl)phenyl]methyl-(2,2-diphenylethyl)amino]butoxy]phenyl]acetic acid; Group 02 was administered 2 mg/kg Cisplatin, Corn Oil, and 0 mg/kg 2-[3-[(3R)-3-[[2-chloro-3-(trifluoromethyl)phenyl]methyl-(2,2-diphenylethyl)amino]butoxy]phenyl]acetic acid; Group 03 was administered 0.9% Saline, 0 mg/kg cisplatin, and 50 mg/kg 2-[3-[(3R)-3-[[2-chloro-3-(trifluoromethyl)phenyl]methyl-(2,2-diphenylethyl)amino]butoxy]phenyl]acetic acid; Group 04 was administered 2 mg/kg cisplatin and 50 mg/kg 2-[3-[(3R)-3-[[2-chloro-3-(trifluoromethyl)phenyl]methyl-(2,2-diphenylethyl)amino]butoxy]phenyl]acetic acid twice per day daily for the entire treatment period; and Group 05 was administered 2 mg/kg cisplatin and 50 mg/kg 2-[3-[(3R)-3-[[2-chloro-3-(trifluoromethyl)phenyl]methyl-(2,2-diphenylethyl)amino]butoxy]phenyl]acetic acid twice per day for five continuous days followed by two days without for the entire treatment period.
# [7] = Regimen 1 (Full): 80 mg twice per day daily + docetaxel 35 mg/m^2, 3 cycles
# [8] = Regimen 2 (Reduced): 80 mg twice per day 5 days then 2 day rest + docetaxel 28 mg/m^2, 20 cycles
# Sequence of OATP1B3 (Q9NPD5 whole entry): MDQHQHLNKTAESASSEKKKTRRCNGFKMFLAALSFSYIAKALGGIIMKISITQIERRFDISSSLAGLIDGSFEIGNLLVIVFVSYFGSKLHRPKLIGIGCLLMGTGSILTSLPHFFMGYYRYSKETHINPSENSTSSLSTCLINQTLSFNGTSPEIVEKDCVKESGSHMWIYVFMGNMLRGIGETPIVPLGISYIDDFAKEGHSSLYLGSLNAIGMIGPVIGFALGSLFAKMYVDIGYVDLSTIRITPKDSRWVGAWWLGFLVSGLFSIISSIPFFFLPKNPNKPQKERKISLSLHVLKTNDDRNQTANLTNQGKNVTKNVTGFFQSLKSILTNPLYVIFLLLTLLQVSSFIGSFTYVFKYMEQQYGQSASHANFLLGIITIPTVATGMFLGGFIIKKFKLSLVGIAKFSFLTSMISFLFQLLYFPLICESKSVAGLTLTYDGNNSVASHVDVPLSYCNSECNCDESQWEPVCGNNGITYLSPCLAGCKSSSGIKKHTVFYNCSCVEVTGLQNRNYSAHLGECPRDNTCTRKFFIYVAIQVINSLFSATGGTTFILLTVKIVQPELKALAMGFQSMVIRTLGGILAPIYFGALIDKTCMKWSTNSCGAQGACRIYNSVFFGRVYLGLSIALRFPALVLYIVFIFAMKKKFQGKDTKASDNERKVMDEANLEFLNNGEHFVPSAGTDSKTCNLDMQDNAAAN
# Sequence of 2A6 (P11509 whole entry): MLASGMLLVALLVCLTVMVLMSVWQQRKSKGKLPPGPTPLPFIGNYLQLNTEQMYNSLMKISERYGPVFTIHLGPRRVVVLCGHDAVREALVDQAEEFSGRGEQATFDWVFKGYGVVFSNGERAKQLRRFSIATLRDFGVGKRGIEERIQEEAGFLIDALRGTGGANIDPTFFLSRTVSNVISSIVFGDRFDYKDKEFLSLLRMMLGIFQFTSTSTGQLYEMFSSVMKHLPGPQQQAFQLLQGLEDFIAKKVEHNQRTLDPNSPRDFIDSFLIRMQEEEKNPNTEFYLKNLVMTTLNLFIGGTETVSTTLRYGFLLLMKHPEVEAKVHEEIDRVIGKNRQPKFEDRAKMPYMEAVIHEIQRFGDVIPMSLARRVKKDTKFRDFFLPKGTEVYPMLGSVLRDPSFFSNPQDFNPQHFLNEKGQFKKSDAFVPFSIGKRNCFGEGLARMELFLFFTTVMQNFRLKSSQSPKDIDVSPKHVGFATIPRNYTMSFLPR
# Sequence of P-glucoprotein (P-gp) (P08183 whole entry): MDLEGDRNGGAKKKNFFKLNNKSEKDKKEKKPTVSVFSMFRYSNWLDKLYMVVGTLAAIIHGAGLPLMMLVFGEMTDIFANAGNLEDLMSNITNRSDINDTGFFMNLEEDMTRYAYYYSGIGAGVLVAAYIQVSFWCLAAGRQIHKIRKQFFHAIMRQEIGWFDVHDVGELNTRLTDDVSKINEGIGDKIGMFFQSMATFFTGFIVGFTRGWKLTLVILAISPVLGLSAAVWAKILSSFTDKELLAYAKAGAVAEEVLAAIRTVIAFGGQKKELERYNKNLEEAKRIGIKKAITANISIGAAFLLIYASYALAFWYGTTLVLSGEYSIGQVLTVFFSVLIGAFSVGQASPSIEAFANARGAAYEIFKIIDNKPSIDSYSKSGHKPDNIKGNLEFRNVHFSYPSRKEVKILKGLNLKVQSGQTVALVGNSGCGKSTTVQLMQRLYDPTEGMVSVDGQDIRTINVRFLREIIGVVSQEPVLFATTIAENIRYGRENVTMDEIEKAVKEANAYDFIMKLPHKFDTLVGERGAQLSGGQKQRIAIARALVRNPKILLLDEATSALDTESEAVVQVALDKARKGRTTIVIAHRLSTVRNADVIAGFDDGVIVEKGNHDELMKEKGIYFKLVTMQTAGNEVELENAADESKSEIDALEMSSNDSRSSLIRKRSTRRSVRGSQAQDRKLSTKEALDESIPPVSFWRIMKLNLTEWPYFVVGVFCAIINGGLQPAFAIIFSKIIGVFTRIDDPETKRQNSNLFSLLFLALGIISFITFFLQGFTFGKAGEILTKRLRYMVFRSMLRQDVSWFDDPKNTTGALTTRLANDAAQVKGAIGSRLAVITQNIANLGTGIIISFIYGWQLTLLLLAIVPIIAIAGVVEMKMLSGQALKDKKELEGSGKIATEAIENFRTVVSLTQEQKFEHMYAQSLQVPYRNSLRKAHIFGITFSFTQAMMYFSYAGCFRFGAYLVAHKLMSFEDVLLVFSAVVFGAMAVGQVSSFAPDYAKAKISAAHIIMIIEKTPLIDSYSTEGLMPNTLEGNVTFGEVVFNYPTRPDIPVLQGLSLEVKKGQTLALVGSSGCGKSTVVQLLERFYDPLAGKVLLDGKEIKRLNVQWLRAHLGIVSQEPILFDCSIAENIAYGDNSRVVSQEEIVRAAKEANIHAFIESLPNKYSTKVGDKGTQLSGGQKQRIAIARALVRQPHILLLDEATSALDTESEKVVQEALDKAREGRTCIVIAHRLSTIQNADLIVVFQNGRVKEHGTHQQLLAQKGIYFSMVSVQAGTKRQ
# Sequence of CYP2J2 (P51589 whole entry): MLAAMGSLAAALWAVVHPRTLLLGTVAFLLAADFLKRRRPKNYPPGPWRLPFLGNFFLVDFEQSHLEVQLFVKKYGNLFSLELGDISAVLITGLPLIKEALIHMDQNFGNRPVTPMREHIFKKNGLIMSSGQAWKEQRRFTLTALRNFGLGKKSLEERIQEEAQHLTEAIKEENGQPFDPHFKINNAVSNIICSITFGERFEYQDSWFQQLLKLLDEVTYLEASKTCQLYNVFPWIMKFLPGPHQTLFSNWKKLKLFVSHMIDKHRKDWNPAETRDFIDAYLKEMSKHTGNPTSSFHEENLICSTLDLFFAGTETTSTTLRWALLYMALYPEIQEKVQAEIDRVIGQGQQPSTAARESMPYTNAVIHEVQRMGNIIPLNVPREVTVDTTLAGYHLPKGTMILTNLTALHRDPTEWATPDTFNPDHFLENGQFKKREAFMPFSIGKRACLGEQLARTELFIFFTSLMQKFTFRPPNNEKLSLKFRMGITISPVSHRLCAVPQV
# Sequence of 3A4 (P08684 whole entry): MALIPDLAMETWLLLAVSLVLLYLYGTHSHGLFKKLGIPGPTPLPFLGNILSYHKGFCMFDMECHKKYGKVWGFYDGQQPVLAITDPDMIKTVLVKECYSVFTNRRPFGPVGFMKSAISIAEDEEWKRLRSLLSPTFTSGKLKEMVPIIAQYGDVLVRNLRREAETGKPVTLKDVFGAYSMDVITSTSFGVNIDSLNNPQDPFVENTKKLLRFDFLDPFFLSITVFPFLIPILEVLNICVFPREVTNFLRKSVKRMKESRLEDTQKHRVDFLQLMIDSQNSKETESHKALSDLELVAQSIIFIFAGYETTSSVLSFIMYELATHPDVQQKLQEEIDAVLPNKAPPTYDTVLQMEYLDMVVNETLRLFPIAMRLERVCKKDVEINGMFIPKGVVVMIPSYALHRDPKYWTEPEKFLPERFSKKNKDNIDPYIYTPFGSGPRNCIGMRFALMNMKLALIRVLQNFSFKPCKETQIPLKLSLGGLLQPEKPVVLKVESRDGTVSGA
# Sequence of organic anion transporting polypeptide (OATP) 1B1 (Q9Y6L6 whole entry): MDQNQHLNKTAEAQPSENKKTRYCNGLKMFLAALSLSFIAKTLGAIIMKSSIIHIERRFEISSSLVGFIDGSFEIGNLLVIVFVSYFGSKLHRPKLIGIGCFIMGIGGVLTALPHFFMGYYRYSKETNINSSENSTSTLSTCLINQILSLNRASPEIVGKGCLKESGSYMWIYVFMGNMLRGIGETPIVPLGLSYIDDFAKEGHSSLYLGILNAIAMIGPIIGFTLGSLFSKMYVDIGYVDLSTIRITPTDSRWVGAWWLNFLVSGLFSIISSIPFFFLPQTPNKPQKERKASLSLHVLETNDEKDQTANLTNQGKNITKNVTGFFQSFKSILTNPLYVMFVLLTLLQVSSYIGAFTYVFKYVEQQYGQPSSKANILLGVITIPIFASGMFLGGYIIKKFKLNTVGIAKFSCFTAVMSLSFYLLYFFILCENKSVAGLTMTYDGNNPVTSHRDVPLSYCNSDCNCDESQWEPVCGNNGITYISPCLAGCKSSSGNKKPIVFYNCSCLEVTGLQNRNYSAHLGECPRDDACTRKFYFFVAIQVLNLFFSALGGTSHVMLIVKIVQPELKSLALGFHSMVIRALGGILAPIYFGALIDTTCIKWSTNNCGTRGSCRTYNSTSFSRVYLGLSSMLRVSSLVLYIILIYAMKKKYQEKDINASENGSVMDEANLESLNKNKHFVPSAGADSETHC
# Sequence of 2C9 (P11712 whole entry): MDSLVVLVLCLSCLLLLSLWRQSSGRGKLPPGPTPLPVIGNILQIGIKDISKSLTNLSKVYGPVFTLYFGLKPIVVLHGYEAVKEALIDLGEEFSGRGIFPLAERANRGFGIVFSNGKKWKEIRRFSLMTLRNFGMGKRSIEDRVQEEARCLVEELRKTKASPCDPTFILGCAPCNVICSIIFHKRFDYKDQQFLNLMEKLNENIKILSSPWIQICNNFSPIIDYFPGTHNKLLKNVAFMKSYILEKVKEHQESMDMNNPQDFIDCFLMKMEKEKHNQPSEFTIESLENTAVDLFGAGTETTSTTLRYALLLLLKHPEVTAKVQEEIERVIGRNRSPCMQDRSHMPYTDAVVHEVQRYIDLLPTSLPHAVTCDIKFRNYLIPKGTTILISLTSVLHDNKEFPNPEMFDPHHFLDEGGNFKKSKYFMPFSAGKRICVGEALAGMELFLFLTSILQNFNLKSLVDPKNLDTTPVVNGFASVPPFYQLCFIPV
structure (smiles),measurement,setting,value
"C[C@H](CCOc1cccc(CC(=O)O)c1)N(Cc1cccc(C(F)(F)F)c1Cl)CC(c1ccccc1)c1ccccc1 [2-[3-[(3R)-3-[[2-chloro-3-(trifluoromethyl)phenyl]methyl-(2,2-diphenylethyl)amino]butoxy]phenyl]acetic acid]",anti-tumor activity,"[1]; animal models of glioblastoma, triple negative breast cancer (TNBC) and lung cancer",demonstrated
same,inhibition of primary tumor growth,[1]; extent varied with model,48-95%
same,ApoE gene expression induction,ApoE [2],3 fold
same,ApoE gene expression induction,ApoE [3],up to 40 fold
same,exposures at minimum efficacious doses,tumor growth; 25-40 mg/kg/day PO,"10,000-50,000 ng-h/mL"
same,minimum efficacious doses,tumor growth; administered orally (PO),25 to 40 mg/kg/day
same,Tmax,[4]; oral dose,4 to 8 h
same,bioavailability,"[4]; po, depending on dose and formulation, read-out: mean % F",18 to 30%
same,half-life,"[4]; po, read-out: mean apparent oral t½",5 to 6.7 h
same,substrate for CYP2J2,CYP2J2,possibly
same,IC50,CYP2C8,7.5 µM
same,inhibition of 2A6,2A6,very weakly inhibited
same,inhibition of 2C9,2C9,very weakly inhibited
same,inhibition of 2D6,2D6,very weakly inhibited
same,inhibition of 2E1,2E1,very weakly inhibited
same,inhibition of 3A4,3A4,very weakly inhibited
same,inhibition of P-gp,P-glucoprotein (P-gp),does not inhibit
same,IC50,[5],0.099 µM
same,IC50,OATP1B3,3.7 µM
same,"Decreased white blood cell count (All grades), AE/Cycle %",[6]; [7],67%
same,"Neutropenia (All grades), AE/Cycle %",[6]; [7],67%
same,"Decreased white blood cell count (All grades), number of AEs","[6]; Regimen 1 (Full): 80 mg twice per day daily + docetaxel 35 mg/m^2, 3 subjects, 3 cycles",2
same,"Neutropenia (All grades), number of AEs","[6]; Regimen 1 (Full): 80 mg twice per day daily + docetaxel 35 mg/m^2 days 1, 8, 15 of 28-day cycle, 3 subjects, 3 cycles",2
same,"Decreased white blood cell count (All grades), number of AEs","[6]; Regimen 2 (Reduced): 80 mg twice per day 5 days then 2 day rest + docetaxel 28 mg/m^2, 7 subjects, 20 cycles",4
same,"Decreased white blood cell count (All grades), AE/Cycle %",[6]; [8],20%
same,"Neutropenia (All grades), AE/Cycle %",[6]; [8],5%
same,"Neutropenia (All grades), number of AEs","[6]; Regimen 2 (Reduced): 80 mg twice per day 5 days then 2 day rest + docetaxel 28 mg/m^2 days 1, 8, 15, 7 subjects, 20 cycles",1
same,adverse event in one Regimen 2 subject,"[6]; one subject: docetaxel 35 mg/m^2 day 1 and 80 mg twice per day first seven days, then reduced schedule",grade 1 white blood cell decrease
same,mean tumor volume,"Xenograft A549; Group 03: 50 mg/kg, 0.9% saline, 0 mg/kg cisplatin, day 0",86.36
same,mean tumor volume,"Xenograft A549; Group 03: 50 mg/kg, 0.9% saline, 0 mg/kg cisplatin, day 3",98.82
same,mean tumor volume,"Xenograft A549; Group 03: 50 mg/kg, 0.9% saline, 0 mg/kg cisplatin, day 6",125.97
same,mean tumor volume,"Xenograft A549; Group 03: 50 mg/kg, 0.9% saline, 0 mg/kg cisplatin, day 9",232.26
same,mean tumor volume,"Xenograft A549; Group 03: 50 mg/kg, 0.9% saline, 0 mg/kg cisplatin, day 12",354.70
same,mean tumor volume,"Xenograft A549; Group 03: 50 mg/kg, 0.9% saline, 0 mg/kg cisplatin, day 15",507.62
same,mean tumor volume,"Xenograft A549; Group 03: 50 mg/kg, 0.9% saline, 0 mg/kg cisplatin, day 19",1053.57
same,mean tumor volume,"Xenograft A549; Group 03: 50 mg/kg, 0.9% saline, 0 mg/kg cisplatin, day 22",1151.02
same,mean tumor volume,"Xenograft A549; Group 04: 50 mg/kg twice per day daily + 2 mg/kg cisplatin, day 0, in mm³ (unit assumed)",86.71
same,mean tumor volume,"Xenograft A549; Group 04: 50 mg/kg twice per day daily + 2 mg/kg cisplatin, day 3",94.50
same,mean tumor volume,"Xenograft A549; Group 04: 50 mg/kg twice per day daily + 2 mg/kg cisplatin, day 6",111.80
same,mean tumor volume,"Xenograft A549; Group 04: 50 mg/kg twice per day daily + 2 mg/kg cisplatin, day 9, in mm³ (unit assumed)",214.76
same,mean tumor volume,"Xenograft A549; Group 04: 50 mg/kg twice per day daily + 2 mg/kg cisplatin, day 12, in mm³ (unit assumed)",315.64
same,mean tumor volume,"Xenograft A549; Group 04: 50 mg/kg twice per day daily + 2 mg/kg cisplatin, day 15, in mm³ (unit assumed)",315.55
same,mean tumor volume,"Xenograft A549; Group 04: 50 mg/kg twice per day daily + 2 mg/kg cisplatin, day 19",748.19
same,mean tumor volume,"Xenograft A549; Group 04: 50 mg/kg twice per day daily + 2 mg/kg cisplatin, day 22",875.67
same,mean tumor volume,"Xenograft A549; Group 05: 50 mg/kg twice per day five days then two days without + 2 mg/kg cisplatin, day 0, in mm³ (unit assumed)",86.32
same,mean tumor volume,"Xenograft A549; Group 05: 50 mg/kg twice per day five days then two days without + 2 mg/kg cisplatin, day 3",97.27
same,mean tumor volume,"Xenograft A549; Group 05: 50 mg/kg twice per day five days then two days without + 2 mg/kg cisplatin, day 6",129.15
same,mean tumor volume,"Xenograft A549; Group 05: 50 mg/kg twice per day five days then two days without + 2 mg/kg cisplatin, day 9, in mm³ (unit assumed)",212.99
same,mean tumor volume,"Xenograft A549; Group 05: 50 mg/kg twice per day five days then two days without + 2 mg/kg cisplatin, day 12, in mm³ (unit assumed)",334.58
same,mean tumor volume,"Xenograft A549; Group 05: 50 mg/kg twice per day five days then two days without + 2 mg/kg cisplatin, day 15, in mm³ (unit assumed)",345.20
same,mean tumor volume,"Xenograft A549; Group 05: 50 mg/kg twice per day five days then two days without + 2 mg/kg cisplatin, day 19",680.16
same,mean tumor volume,"Xenograft A549; Group 05: 50 mg/kg twice per day five days then two days without + 2 mg/kg cisplatin, day 22",830.27

# Source: patent publication US20220331274A1, “METHODS OF TREATING CANCER” (Inspirna, Inc., priority 2019, published 2022)
